Test results as given in patent US11447445B2, “Diabetes and metabolic syndrome treatment with a novel dual modulator of soluble epoxide hydrolase and peroxisome proliferator-activated receptors” (priority 2015, dated 2022).
In brackets after ≈: the same amount, converted by molar mass.

Assays:
[1] = system: human primary preadipocytes; test: Adipocyte differentiation of human primary preadipocytes (Oil Red O staining); type: cell-based; conditions: 1c 1-10 μM; CIU 10 μM
Description: (§1) Human primary preadipocytes were obtained from stromal vascular fraction of subcutaneous fat from anonymous donors undergoing elective cosmetic surgery. Adipose tissue was digested by collagenase solution (0.3 U/ml in 1% BSA/PBS) for 45 min at 37° C. with constant shaking. Floating mature adipocytes were removed and the pellet containing the stromal vascular fraction was resuspended in erythrocyte lysis buffer. […] After 4 days the medium was changed to 3FC medium (QuickDiff medium without dexamethasone, IBMX and rosiglitazone). Adipocytes were cultured for additional 14 days before medium was changed to basal medium consisting of DMEM/Ham's F12 with biotin and panthotenate. This investigation conforms to the ethical principles outlined in the Declaration of Helsinki and was approved by the university ethics committee (Ethik-Kommission des Fachbereichs Medizin der Goethe-Universitat Frankfurt am Main). Total RNA was isolated using PeqGold RNAPure (Peqlab) according to manufacturer's instructions and was transcribed to cDNA using Maxima First Strand cDNA synthesis kit (Thermo Scientific), following manufacturer's instructions. Quantitative PCR was performed with iQ SYBR green Supermix (Bio-Rad) using a CFX96 (Bio-Rad) system. Expression was normalized to actin RNA.

3T3-L1 fibroblasts = test: Adipocyte differentiation of murine 3T3-L1 cells (Oil Red O staining); type: cell-based; conditions: 1c 1-10 μM; CIU 10 μM
Description: 3T3-L1 cells were subcultured in DMEM containing 10% newborn calf serum in a humidified atmosphere at 37° C., 5% CO2. […] Briefly, cells were seeded in 6-well plates (2.5×10^6/well). Differentiation was started at day 3 by addition of 1 μg/ml insulin, 0.25 dexamethasone and 0.5 mM isobutylmethylxanthine in DMEM supplemented with 10% fetal calf serum. At day 5 medium was replaced by medium containing only insulin for 2 more days. After this, cells were kept for lipid droplet accumulation in basal medium without additions until day 15.

recombinant human sEH = target: T1, recombinant human sEH (Homo sapiens, UniProt P34913); test: biochemical; conditions: read-out: IC50 sEH (converted)
T1 sequence (P34913 1-555): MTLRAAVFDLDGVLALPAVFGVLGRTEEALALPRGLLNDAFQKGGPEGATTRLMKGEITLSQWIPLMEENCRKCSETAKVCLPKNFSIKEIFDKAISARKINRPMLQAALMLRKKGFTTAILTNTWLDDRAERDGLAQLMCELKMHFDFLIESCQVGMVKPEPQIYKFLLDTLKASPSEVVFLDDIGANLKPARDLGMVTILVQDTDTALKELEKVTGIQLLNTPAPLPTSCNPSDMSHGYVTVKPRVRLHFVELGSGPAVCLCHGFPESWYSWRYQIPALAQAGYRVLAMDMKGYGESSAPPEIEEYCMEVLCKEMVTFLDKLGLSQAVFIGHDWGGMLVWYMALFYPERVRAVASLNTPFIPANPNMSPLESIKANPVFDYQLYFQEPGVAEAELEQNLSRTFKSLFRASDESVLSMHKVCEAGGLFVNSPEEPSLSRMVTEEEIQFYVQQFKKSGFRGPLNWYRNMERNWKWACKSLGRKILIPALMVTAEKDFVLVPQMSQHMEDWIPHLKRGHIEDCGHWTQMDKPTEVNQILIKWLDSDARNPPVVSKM

PPARδ = target: T2, PPARδ (Homo sapiens, UniProt Q03181); test: PPAR transactivation assay in COS-7 cells (Gal4-hPPAR-LBD, luciferase); type: cell-based; conditions: i.a. = inactive
T2 construct: expressed in transfected cells; host or cells: COS-7

[2] = system: PPARγ target genes (GLUT4, Adiponectin, FABP4, LPL); test: qPCR of PPARγ target genes in differentiated 3T3-L1 cells; type: cell-based, murine; conditions: 1-10 μM; compared to rosiglitazone 2 μM
Description: 3T3-L1 cells were subcultured in DMEM containing 10% newborn calf serum in a humidified atmosphere at 37° C., 5% CO2. […] Briefly, cells were seeded in 6-well plates (2.5×10^6/well). Differentiation was started at day 3 by addition of 1 μg/ml insulin, 0.25 dexamethasone and 0.5 mM isobutylmethylxanthine in DMEM supplemented with 10% fetal calf serum. At day 5 medium was replaced by medium containing only insulin for 2 more days. After this, cells were kept for lipid droplet accumulation in basal medium without additions until day 15. […] Differentiation of 3T3-L1 cells was confirmed by Oil Red 0 staining. Cells were washed with PBS and subsequently fixed for 60 minutes with a formaldehyde solution (4% in PBS). After this, cells were rinsed with 60% isopropanol and incubated with Oil Red 0 solution (0.3%) for 120 minutes.
3T3-L1 cells or homogenized mouse tissues were lysed using TRIzol® reagent (Ambion, life technologies, Carlsbad, USA) and mRNA was isolated following the manufacturers protocol. DNA contaminations were digested using DNAse (DNase I, RNase-free Kit; Thermo Scientific, Waltham, USA) and mRNA concentrations were measured with a NANODROP2000 spectrophotometer (Thermo Scientific, Waltham, USA). […] All samples were measured in triplicates and were analyzed using the ΔΔCT method.

[3] = system: PPARγ target genes (GLUT4, Adiponectin, FABP4, LPL); test: qPCR of PPARγ target genes in human primary adipocytes; type: cell-based
Description: as §1

hFFA1 = target: T3, hFFA1 (Homo sapiens, UniProt O14842); test: IP1 accumulation in HEK293 cells stably expressing hFFA1; type: cell-based; conditions: read-out: pEC50 (IP1 accumulation) (converted)
T3 construct: expressed in transfected cells; host or cells: Flp-In T-REx 293 (HEK293), doxycycline-induced
Description: (§2) Stably transfected Flp-In™ T-REx™ 293 cells (Invitrogen) were cultured in Dulbecco's modified Eagles's medium (DMEM) containing 10% (v/v) fetal bovine serum (FBS), penicillin (100 U/mL), streptomycin ([…]), Hygromycin B (100 μg/mL) and Blasticidin (15 μg/mL) at 37° C. and 5% CO2. All experiments were carried out after inducing receptor expression with 1 μg/mL doxycycline for approximately 18 hours, according to manufacturer's instructions (Invitrogen).
(§3) Compound activity on the Gq coupled FFA1 receptor constructs was assessed by measuring intracellular level of inositolmonophosphate (IPI) using the HTRF®-IP-One kit (Cisbio International) according to manufacturer's instructions. Briefly, 10,000 receptor expressing cells were seeded into a 384 well microplate and incubated 20 minutes at 37° C. […] Data analysis and nonlinear regression curve fitting were carried out using the GraphPad Prism® software v5.04 (Graphpad Software).

[4] = after p.o. 30 mg/kg bw of 1c
Description: Blood was sampled 15 min, 30 min, 1 h, 2 h, 4 h and 8 h after test item application and only 8 h after vehicle application. Each drug treated mouse was sampled twice (0.25 and 0.5 h, 1 and 2 h, 4 and 8 h) via retro orbital puncture. Blood was collected in tubes containing lithium-heparin, stored on ice and subsequently centrifuged at 6000 rpm for 10 minutes at 4° C. (Heraeus biofuge fresco). The plasma was prepared within 45 min after sampling and kept at −20° C. until being assayed. For further kinetic and dynamic analysis the tissues (brain, liver, abdominal fat) were collected 30 min, 2h and 8 h post dose, after the second plasma sampling of each drug treated mouse. Tissue of the vehicle group was sampled only once, 8 h post dose. A volume of 40 μl acetonitrile containing the internal standard (300 ng/ml Diazepam) was added to 20 μl of mouse plasma sample, plasma calibration standard and plasma QC samples. Samples were vigorously shaken and centrifuged for 10 minutes at 6000 g and 20° C. The particle free supernatant was diluted 1:1 with water. An aliquot was transferred to 200 μl sampler vials and subsequently subjected to LC MS with an injection volume of 20 pl. The brain samples were homogenized in PBS (1+1, w/v) using the Precellys 24/Dual homogenizer. A volume of 20 μl of the brain homogenate was mixed (1+1 v/v/) with 20 μl mouse blank plasma. Then 80 μl acetonitrile containing the internal standard (300 ng/ml Diazepam) were added. Samples were vigorously shaken and centrifuged for 10 minutes at 6000 g and 20° C. The particle free supernatant was diluted 1:1 with water. An aliquot was transferred to 200 μl sampler vials and subsequently subjected to LC MS with an injection volume of 20 μl. Mass spectrometry was performed on a TSQ Quantum Discovery Max triple quadrupole mass spectrometer equipped with an electrospray (ESI) interface (Thermo Fisher Scientific, USA) connected to a PC running the standard software Xcalibur 2.0.7. […]

HepG2 cells = test: WST-1 cytotoxicity assay; type: cell-based; conditions: up to a concentration of 30 μM; 48 hours
Description: The WST-1 assay (Roche Diagnostic GmbH, Mannheim, Germany) was used to determine the cell viability after treatment with the compounds. For this purpose, Hela and HepG2 cells were seeded each in 96-well plates at a density of 1×10^4 per well in DMEM with Phenolred and in presence of 10% FCS. After 24 hours the medium was changed. Fresh DMEM with 10% FCS was added and the cells were treated with the compounds for 48 hours. Cell viability was assessed according to the manufacturer's protocol using a microplate reader (infinity M200, Tecan Group Ltd., Crailsheim, Germany). All experiments were performed at least in triplicate.

[5] = In vitro drug metabolism in rat liver microsomes; type: in vitro ADME; conditions: 10 μM, 1 h incubation
Description: The incubation was performed in a shaking water bath at 37° C. The reaction was stopped by the addition of 500 μl ice-cold methanol at 0, 15, 30 and 60 min. The samples were centrifuged at 10 000 g for 5 min at 4° C. The supernatants were analysed and quantified by HPLC. Control samples were always performed to check the stability of the compounds in the reaction mixture. First control was without NADPH, which is needed for the enzymatic activity of the microsomes. Second control was with inactivated microsomes (microsomes that were incubated for 20 min at 90° C.). Third control was without test compounds (to determine the baseline). As positive control, a solution of 7-ethoxycoumarin (1 mM) was used. The final concentration of the control compound, under assay conditions, was again 10 μM. The amounts of the test compounds were quantified by an external calibration curve.

[6] = Water solubility approximation; type: physicochemical; conditions: aqueous with cosolvent or surfactant or cyclodextrin, kinetic from dmso stock; PBS pH 7.4, 0.01% Polysorbate 20, 1% DMSO; precipitation at 650 nm; read-out: w.s. (water solubility)
Description: PBS at pH 7.4 with 0.01% Polysorbate 20 (Tween) was combined with 1% of a DMSO solution of the inquired compound in a 96-well transparent flat bottom microtiter plate. Precipitation of the compound was measured at 650 nm with a Tecan Infinite 200 (Tecan Group Ltd, Mannedorf, Switzerland).

PPARα = target: T4, PPARα (Homo sapiens, UniProt Q07869); type: cell-based
T4 construct: expressed in transfected cells; host or cells: COS-7

mFFA1 = target: T5, mFFA1 (Mus musculus, UniProt Q76JU9); test: IP1 accumulation in HEK293 cells stably expressing mFFA1; type: cell-based; conditions: read-out: pEC50 (IP1 accumulation) (converted)
T5 construct: expressed in transfected cells; host or cells: Flp-In T-REx 293 (HEK293), doxycycline-induced
Description: as §2, §3

PPARγ target gene CD36 = test: CD36 expression in mouse liver (qPCR); type: in vivo; conditions: single p.o. 30 mg/kg bw, 8 h; compared to non-treated mice
Description: 3T3-L1 cells or homogenized mouse tissues were lysed using TRIzol® reagent (Ambion, life technologies, Carlsbad, USA) and mRNA was isolated following the manufacturers protocol. DNA contaminations were digested using DNAse (DNase I, RNase-free Kit; Thermo Scientific, Waltham, USA) and mRNA concentrations were measured with a NANODROP2000 spectrophotometer (Thermo Scientific, Waltham, USA). Subsequently, reverse transcription was performed using the High Capacity RNA-to-cDNA Kit (Applied Biosystems, Foster City, USA). PCR was performed using specific primers for GLUT-4, FABP-4, LPL, adiponectin and CD36 (shown under supporting informations) with a StepOnePlus Real-Time PCR System (Applied Biosystems, Foster City, USA). NoNo (3T3-L1) and β-Actin (mouse tissue) were used as reference genes. All samples were measured in triplicates and were analyzed using the ΔΔCT method.

SHROB rats = system: SHROB rats
Description: SHROB were treated with RB394 (10 mg/kg/d, p.o.; […]) for 8-weeks.
Metabolic syndrome (MetS) is a cluster of symptoms including hypertension, hyperglycemia, hypertriglyceridemia and obesity. […] The inventors hypothesized that the development of a dual modulator (a drug that combines two pharmacophores) could treat more than one symptom of MetS and prevent renal injury. […] The inventors synthesized a novel dual sEH inhibitor-PPAR-γ agonist (sEHi/PPAR-γ), RB394 and investigated its efficacy in a rat model of MetS (see FIG. 21). Three groups of rats were utilized; Group 1: Wister Kyoto (WKY)+Vehicle (n=6); Group 2: Spontaneously Hypertensive Obese (SHROB)+Vehicle (n=5); Group 3: SHROB+RB394 (10 mg/kg/d p.o.; n=5). RB394 or vehicle treatments were administered for 56 days, blood pressure measured, and urine and kidney tissues collected at the end of treatment period. […] Kidney injury was assessed from albuminuria, and also from histopathological analysis of renal tubular cast formation, collagen formation and glomerular injury using Periodic Acid Schiff and Picro Sirius Red staining.
The Medical College of Wisconsin Institutional Animal Care and Use Committee according to the National Institutes of Health Guidelines for Care and Use of Laboratory Animals approved all animal studies. Eight to nine-week-old male Wistar-Kyoto (WKY), and SHROB were purchased from Charles River Laboratories (Wilmington, Mass., USA). Animals were housed in the Biomedical Resource Center at Medical College of Wisconsin with a 12 hour light-dark cycle and free access to tap water along with rat chow. WKY rats (n=6) were used as a control group as a comparison for disease progression. SHROB rats were divided into 2 groups. Group 1 received vehicle (n=5) and Group 2 received RB394 (10 mg/kg/d p.o.; n=5) for 8 weeks. Rats were weighed and systolic blood pressure was measured by tail-cuff plethysmography.
Intra-peritoneal glucose tolerance test was carried out during the 8-week treatment protocol in rats that were fasted overnight and injected with glucose (2 g/kg i.p.). Blood samples were collected from the tail vein before and at different time points after glucose injection. The tail vein blood glucose levels were measured using a glucometer LifeScan (Miltipas, Calif., USA).
Urinary biochemical analysis was done using commercially available ELISA kits; albumin and from Exocell (Philadelphia, Pa.). Rats were anesthetized using isoflorane and plasma collected from the artery. Triglyceride, cholesterol, protein and creatinine assay kits were from Cayman (Ann Arbor, Mich., USA), and free fatty acids from Zen-Bio Inc. (Research Triangle Park, N.C.). Blood glucose levels from the tail vein were measured using a glucometer.
The kidney was excised and immersion-fixed in 10% neutral buffered formalin and paraffin embedded. The embedded kidney and pancreas sections were cut into 4 μm slices for use in histology. Formalin-fixed paraffin-embedded tissue slices were deparaffinized, re-hydrated, and kidney tissue slices were stained with Periodic Acid-Schiff (PAS) and Masson's Trichorme. Glomerulosclerosis and mesangial matrix expansion were blindly scored from kidney sections stained with PAS staining using the following numeric scale: 0=no damage; +1=very mild; +2=mild; +3=moderate and +4=severe. Two observers in a blinded fashion conducted histological analysis at a magnification of ×200 using Nikon NIS Elements Software (Nikon Instruments Inc., Melville, N.Y., USA). Proteinaceous cast in the kidney was also determined in PAS stained kidney sections at magnification of ×200 using Nikon NIS Elements Software. The percentage area positive for proteinaceous cast was calculated from the mean of eight cortical and five medullary fields for each animal. Fibrosis in the kidney was determined in kidney sections stained with Masson's Trichorme at a magnification of ×200.

[7] = SHROB + RB394 10 mg/kg/d p.o., 8 weeks
[8] = SHROB + RB394 10 mg/kg/d p.o., 56 days

T5 sequence (Q76JU9 whole entry): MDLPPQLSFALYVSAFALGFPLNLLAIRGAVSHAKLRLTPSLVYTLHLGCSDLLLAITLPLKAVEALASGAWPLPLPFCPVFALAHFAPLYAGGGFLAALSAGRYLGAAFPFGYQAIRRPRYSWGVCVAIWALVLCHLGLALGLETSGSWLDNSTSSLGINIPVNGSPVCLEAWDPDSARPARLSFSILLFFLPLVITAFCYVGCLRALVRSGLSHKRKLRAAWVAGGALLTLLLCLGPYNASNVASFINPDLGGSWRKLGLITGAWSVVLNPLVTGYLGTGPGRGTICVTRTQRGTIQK
T2 sequence (Q03181 211-439): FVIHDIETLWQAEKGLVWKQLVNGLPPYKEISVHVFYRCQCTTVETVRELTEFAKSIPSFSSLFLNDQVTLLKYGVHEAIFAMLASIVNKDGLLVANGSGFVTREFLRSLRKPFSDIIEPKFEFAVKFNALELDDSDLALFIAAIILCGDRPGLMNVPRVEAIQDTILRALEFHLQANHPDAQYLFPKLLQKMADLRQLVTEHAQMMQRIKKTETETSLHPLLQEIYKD
T3 sequence (O14842 whole entry): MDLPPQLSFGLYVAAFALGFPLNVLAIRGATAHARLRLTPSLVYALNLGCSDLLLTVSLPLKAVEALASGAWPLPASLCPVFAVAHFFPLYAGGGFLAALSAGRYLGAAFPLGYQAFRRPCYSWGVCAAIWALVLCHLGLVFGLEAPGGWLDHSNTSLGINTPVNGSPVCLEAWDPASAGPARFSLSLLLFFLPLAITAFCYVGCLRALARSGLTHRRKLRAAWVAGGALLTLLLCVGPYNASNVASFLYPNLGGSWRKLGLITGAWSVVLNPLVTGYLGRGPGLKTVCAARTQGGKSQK
T4 sequence (Q07869 239-466): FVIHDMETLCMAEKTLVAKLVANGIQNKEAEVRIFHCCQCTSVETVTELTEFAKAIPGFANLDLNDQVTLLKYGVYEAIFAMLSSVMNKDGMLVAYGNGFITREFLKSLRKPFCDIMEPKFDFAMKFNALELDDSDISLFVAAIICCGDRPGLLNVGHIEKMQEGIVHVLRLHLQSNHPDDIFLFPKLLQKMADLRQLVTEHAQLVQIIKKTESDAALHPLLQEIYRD

**Q.** What does the source list for `O=C(Nc1ccc(I)cc1)NC1CCCCC1` [CIU, N-cyclohexyl-N′-iodophenyl urea, reference compound]?
**A.** adipocyte differentiation (Oil-Red O) [1]: not able to start differentiation; adipocyte differentiation (Oil-Red O) (3T3-L1 fibroblasts): able to start adipocyte differentiation

**Q.** With `CCC(Cc1ccc(C(=O)NCc2ccccc2C(F)(F)F)cc1)C(=O)O` (stereo not drawn) [Compound 1c, 2-Ethyl 3-[4-(N-((2-trifluoromethyl)benzyl)benzamide)]propionic acid] as the compound, how does the “adipocyte differentiation (Oil-Red O)” value [1] read?
**A.** dose dependent (1-10 μM) effect

**Q.** And the IC50 (recombinant human sEH)?
**A.** 1.6 ± 0.2 µM

**Q.** And the “EC50 PPARδ” value (PPARδ)?
**A.** i.a.

**Q.** What about the “expression of PPARγ target genes (GLUT4, Adiponectin, FABP4, LPL)” value [2] of the same compound?
**A.** dose-dependently activated expression of all target genes analysed

**Q.** What about the “upregulation of GLUT4 expression” value ([3]; 1c 10 μM) of the same compound?
**A.** comparable to the rosiglitazone (2 μM) control

**Q.** What about the “upregulation of Adiponectin, FABP4 and LPL” value ([3]; 1c stimulation) of the same compound?
**A.** only minor effects

**Q.** What about the EC50 (hFFA1) of the same compound?
**A.** 8.32 µM

**Q.** What about the “AUC0→∞” value [4] of the same compound?
**A.** 15847 ng·h/mL

**Q.** What about the tmax [4] of the same compound?
**A.** 30 min

**Q.** What about the “cell viability of HepG2 cells (WST-1)” value (HepG2 cells) of the same compound?
**A.** did not impair cell viability

**Q.** And the “compound remaining intact after 1 h” value [5]?
**A.** 92%

**Q.** And the solubility [6]?
**A.** 100 µM (≈ 37.9 µg/mL)

**Q.** What about the “adipocyte differentiation (Oil-Red O)” value (3T3-L1 fibroblasts) of the same compound?
**A.** dose-dependent effect

**Q.** What about the “EC50 PPARα” value (PPARα; i.a. = inactive) of the same compound?
**A.** i.a.

**Q.** And the EC50 (mFFA1)?
**A.** 4.9 µM

**Q.** And the “increase of CD36 expression in liver” value (PPARγ target gene CD36)?
**A.** at least 2 fold

**Q.** With `CCC(Cc1ccc(C(=O)NCc2ccc(OC)cc2C(F)(F)F)cc1)C(=O)O` (stereo not drawn) [Compound 14c, 2-Ethyl 3-14-(N-(4-methoxy(2-trifluoromethyl)benzyl)benzamide)1 propionic acid] as the compound, how does the “body weight gained more than vehicle treated SHROB” value (SHROB rats; 8 weeks) read?
**A.** approximately 40 g

**Q.** And the “systolic blood pressure lower than vehicle treated SHROB” value (SHROB rats; 8 weeks)?
**A.** approximately 44 mmHg

**Q.** What about the “Body Weight” value (SHROB rats; [7]) of the same compound?
**A.** 600 ± 8 g

**Q.** And the “Fasting Blood Glucose” value (SHROB rats; [7])?
**A.** 83 ± 7 mg/dL

**Q.** What about the “Free fatty Acid” value (SHROB rats; [7]) of the same compound?
**A.** ^#322 ± 24 μM

**Q.** What about the “Serum Cholesterol” value (SHROB rats; [7]) of the same compound?
**A.** #4.0 ± 0.7 mM

**Q.** And the Triglyceride (SHROB rats; [7])?
**A.** ^#133 ± 18 mg/DL

**Q.** And the albuminuria (SHROB rats; [8])?
**A.** 59 ± 11 mg/day

**Q.** And the “reduction of glomerular injury” value (SHROB rats; [8])?
**A.** 45%

**Q.** What about the “reduction of renal cast and collagen formation” value (SHROB rats; [8]) of the same compound?
**A.** 40-50%

**Q.** And the “reduction of renal inflammation (infiltrating immune cells in the kidney)” value (SHROB rats; [8])?
**A.** 20%

**Q.** What about the “EC50 PPARδ” value (PPARδ) of the same compound?
**A.** n.t. i.a. i.a. n.t.

**Q.** What about the EC50 (hFFA1) of the same compound?
**A.** 14.1 µM

**Q.** What about the “cell viability of HepG2 cells (WST-1)” value (HepG2 cells) of the same compound?
**A.** did not impair cell viability

**Q.** And the “compound remaining intact after 1 h” value [5]?
**A.** 96%

**Q.** What about the solubility [6] of the same compound?
**A.** 500 µM (≈ 205 µg/mL)

**Q.** What about the “PPARα activation @10 μM” value (PPARα; at 10 μM, compared to GW7647 1 μM) of the same compound?
**A.** 29%

**Q.** What about the EC50 (mFFA1) of the same compound?
**A.** 23.4 µM
